Laboratory results reported in patent US9340532B2, “Methods and compositions for inhibiting CNKSR1” (PHUSIS THERAPEUTICS, INC., priority 2012, dated 2016).

Legend:
[1] = Stability in biological media: human plasma; type: in vitro ADME; details: 50 μg/ml, 37° C.
[2] = biological target: T1, membrane colocalisation of CNKSR1 and mutant-KRas (Homo sapiens, UniProt Q969H4); assay: Confocal imaging of CNKSR1 / mutant KRas colocalisation; type: cell-based; details: FIG. 12
T1 construct: fluorescent protein (GFP or mRFP); expressed in transfected cells; host or cells: HEK293T
T1 sequence (Q969H4 1-720): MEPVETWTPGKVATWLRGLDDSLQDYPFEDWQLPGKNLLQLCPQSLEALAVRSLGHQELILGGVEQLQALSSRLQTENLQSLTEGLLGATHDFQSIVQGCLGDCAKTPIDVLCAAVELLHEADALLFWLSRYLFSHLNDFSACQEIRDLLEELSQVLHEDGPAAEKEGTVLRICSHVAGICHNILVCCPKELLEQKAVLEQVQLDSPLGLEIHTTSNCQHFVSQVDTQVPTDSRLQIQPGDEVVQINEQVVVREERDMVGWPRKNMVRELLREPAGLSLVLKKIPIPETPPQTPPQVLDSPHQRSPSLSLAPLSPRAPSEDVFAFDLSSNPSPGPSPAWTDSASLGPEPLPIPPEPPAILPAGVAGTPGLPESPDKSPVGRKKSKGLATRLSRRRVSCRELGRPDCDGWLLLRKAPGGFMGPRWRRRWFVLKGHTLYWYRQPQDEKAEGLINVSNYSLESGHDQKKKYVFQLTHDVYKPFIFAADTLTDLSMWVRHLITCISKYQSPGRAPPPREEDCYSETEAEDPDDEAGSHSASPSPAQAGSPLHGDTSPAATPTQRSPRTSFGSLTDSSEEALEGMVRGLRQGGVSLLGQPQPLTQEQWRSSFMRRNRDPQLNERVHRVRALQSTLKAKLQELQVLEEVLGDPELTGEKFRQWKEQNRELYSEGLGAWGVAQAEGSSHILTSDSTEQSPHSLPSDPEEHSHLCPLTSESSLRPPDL
Procedure: HEK293T cells were co-transfected with CNK and either wild type or G12D mutant KRAS. Twenty-four hours post-transfection, cells were seeded on glass coverslips and allowed to grow a further 24 h and then serum deprived overnight. Cells were fixed with 4% (w/v) paraformaldehyde pH 8.0 for 20 min at room temperature. Following 6-7 washes with PBS (pH 8.0) the coverslip was mounted onto a slide with mounting medium (0.1% p-phenylenediamine/75% glycerol in PBS at pH 7.5-8.0). Confocal laser scanning microscopy was performed with a Leica SP5 confocal microscope system with 63× oil-immersion objective (numerical aperture NA=1.4), a line scan speed of 600 Hz, with image size of 1024×1024 pixels. GFP was excited with an argon-visible light laser tuned to 488 nm, mRFP were excited with a […] tuned to 543 nm GFP and RFP fluorescence emissions were collected using a photomultiplier tube via 514/10 nm and 595/10 nm band selections respectively.

[3] = biological target: T2, direct binding of CNKSR1 to mut-KRAS (Homo sapiens, UniProt Q969H4); assay: Fluorescence lifetime imaging microscopy (FLIM); type: cell-based; details: FIG. 13, FLIM
T2 construct: expressed in transfected cells
T2 sequence (Q969H4 1-720): T1 sequence (Q969H4 1-720)
Procedure: FLIM experiments were carried out using a Leica TCP SP5 inverted advanced confocal microscope system with internal photomultiplier tube (PMT) detector for TCSPC (time-correlated single-photon counting). The sample was excited with a tunable femtosecond (fs) titanium-sapphire laser with repetition rate of 80 MHz and pulse width less then 80 fs (Spectral Physics, Mai Tai BB). The wavelength used for two-photon excitation was 930 nm and the fluorescence was detected through a 525±25 nm interference filter. Images were obtained with oil-immersion objective (numerical aperture NA=1.4), a line scan speed of 400 Hz, with image size of 512×512 pixels. For FLIM analysis the pixels were reduced to 256×256. FLIM data was collected using Becker & Hickl SPC830 data and image acquisition card for TCSPC.

[4] = test system: H1373 (KRAS mutant cell line); assay: Proliferation Assay H1373; type: cell-based; details: Homo sapiens, NCI-H1373, N = 2 experiments
Procedure, shortened: (§1)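 Cells plated 2000 per well, allowed 24 h to attach, then exposed 72 h to agents (0-100 μM for isogenic lines; 0.01 to 50 μM for the RPMI 1640/10% FBS-cultured 30-line NSCLC panel). MTS read at 490 nm after 2 h, normalized to no-cell and no-drug controls; IC50 from curve fitting.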

[5] = test system: H226 (KRAS wildtype cell line); assay: Proliferation Assay H226; type: cell-based; details: Homo sapiens, NCI-H226, n = 1
Procedure, shortened: as §1

CCOC(=O)Cc1nn(Cc2nc(-c3ccc(C)cc3)cs2)c(=O)c2ccccc12 [Compound 7]
Half life [1]: stable | Half life ([1]; listed as #7): completely stable | membrane colocalisation of CNKSR1 and mutant-KRas at the plasma membrane [2]: blocking | total mutant KRas protein in the cell [2]: lower | direct binding of CNKSR1 to mut-KRAS in cells [3]: inhibit | IC50 [4]: > 100 µM | IC50 [5]: > 100 µM
